Series [1] concerns mitochondrial fatty acid oxidation (rat heart mitochondria). Put plainly: Palmitoyl CoA oxidation in isolated rat heart mitochondria. The settings on record: 15 min at 30° C, DMSO control. The series is classed as biochemical. As to the method:
Compounds of this invention were evaluated in a rat heart mitochondiral assay as set forth below.
(§1) Rat heart mitochondria were isolated by the method of Nedergard and Cannon (methods in Enzymol. 55, 3, 1979).
Palmitoyl CoA oxidation—The Palmityl CoA oxidation was carried out in a total volume of 100 micro liters containing the following agents: 110 mM KCl, 33 mM Tris buffer at pH 8, 2 mM KPi, 2 mM MgCl2, 0.1 mM EDTA, 14.7 microM defatted BSA, 0.5 mM malic acid, 13 mM carnitine, 1 mM ADP, 52 micrograms of mitochondrial protein, and 16 microM 1-C14 palmitoyl CoA (Sp. Activity 60 mCi/mmole; 20 microCi/ml, using 5 microliters per assay). The compounds of this invention were added in a DMSO solution at the following concentrations: 100 microM, 30 microM, and 3 microM. In each assay, a DMSO control was used. After 15 min at 30° C., the enzymatic reaction was centrifuged (20,000 g for 1 min), and 70 microliters of the supernatant was added to an activated reverse phase silicic acid column (approximately 0.5 ml of silicic acid). The column was eluted with 2 ml of water, and 0.5 ml of the eluent was used for scintillation counting to determine the amount of C^14 trapped as C^14 bicarbonate ion.

The test system is the same in series [2]. Put plainly: Palmitoyl carnitine oxidation in isolated rat heart mitochondria. The series is classed as biochemical. The settings on record: 15 min at 30° C, DMSO control. As to the method: as §1
The Palmitoyl carnitine oxidation was carried out in a total volume of 100 microliters containing the following agents: 110 mM KCl, 33 mM Tris buffer at pH 8, 2 mM KPi, 2 mM MgCl2, 0.1 mM EDTA, 0.1 mg/ml of defatted BSA, 0.5 mM malic acid, 3 mM ADP, 52 micrograms of mitochondrial protein, and 43 microM 1-C14 palmitoyl carnitine (Sp. Activity 60 mCi/mmole; 20 microCi/ml, using 5 microliters per assay). The compounds of this invention were added in a DMSO solution at the following concentrations: 100 microM, 30 microM, and 3 microM. In each assay, a DMSO control was used. After 15 min at 30° C., the enzymatic reaction was centrifuged (20,000 g for 1 min), and 70 microliters of the supernatant was added to an activated reverse phase silicic acid column (approximately 0.5 ml of silicic acid). The column was eluted with 2 ml of water, and 0.5 ml of the eluent was used for scintillation counting to determine the amount of C^14 trapped as C^14 bicarbonate ion. The data are presented as % activity of control in Table 3, below.

Series [3] can be described thus: Metabolic stability in human liver S-9 fractions. The settings on record: human liver S9, 30 min at 37 C; for Liver S9 Parent Present relative to Ranolazine: 10 μM, % parent remaining divided by average % ranolazine remaining (57%).
Method: After, 30 minutes at 37 C, the amount of parent drug remaining was determined using LC-mass spec. The response factors for each compound was determined by establishing a standard curve and using an internal standard during the analysis of the samples. […] The compounds of this invention were assayed as described in the protocol below and the percentage of parent remaining was divided by the average % of ranolazine remaining (57%) affording a metabolic stability factor.
The purpose of this experiment is to compare the percentages remaining for compounds of this invention with the percentage remaining for ranolazine after 30 minutes of incubation with human liver S9 fractions.
The following reagents were used; Potassium phosphate, 0.5M pH 7.4 (incubation buffer), kept at room temperature; 0.05M MgCl2 kept at 4° C.; P-Nicotinamide adenine dinucleotide phosphate, tetrasodium salt, reduced form (NADPH), 0.02M solution in water (˜16.6mg/mL) from Sigma Lot #79H7044 prepared on day of use. 1 mM of ranolazine or Compounds 43, 45, 47, 52, 70, 74, 76, 78, and 80 in ACN further diluted to obtain 100 μM in 10% ACN; Human S9 stock: 20 mg/mL from Gentest.
Incubation mixtures were prepared as follows:
Combine all components with incubation buffer and re-pipette 200 μL/tube+25 μL of the compound being tested along with 25 μL of S-9.
After 5 min of pre-incubation at 37° C., at 0 and 30 min after starting the reaction, a 50 μl aliquot of the incubation mixture was removed and added to 100 μL of 9:1 acetonitrile: methanol containing the internal standard.
The mixture was centrifuged and a 100 μL aliquot of the supernatant was diluted in 1 mL of solvent C (0.1% Formic Acid in water). Then samples were analyzed for change between the ratio of compound to internal standard at time zero and 30 minutes by LC/MS (injected 10 EL).
Samples were analyzed for the starting compounds and potential metabolite/s by LC/MS using an internal standard and an ODS-C18 column with a flow rate of 0.25 ml/min.

This is an account of results in patent US6677336B2, “Substituted piperazine compounds” (CV Therapeutics, Inc., priority 2000, dated 2004).

Molecules are shown by their SMILES.

For the molecule `COc1ccccc1OCC(O)CN1C[C@@H](C)N(CC(=O)Nc2c(C)cccc2C)C[C@@H]1C` (stereo partly drawn) [Compound 15, 2-{(5S,2R)-4-[2-hydroxy-3-(2-methoxyphenoxy)propyl]-2,5-dimethylpiperazinyl}-N-(2,6-dimethylphenyl)acetamide], the figures for the “Inhibition of mitochondrial fatty acid oxidation using palmitoyl CoA as substrate - % of Control” value in series [1] (3 μM compound), in series [1] (30 μM compound) and in series [1] (100 μM compound) were 103%, 97% and 78%, respectively. For the same molecule, the figures for the “Inhibition of mitochondrial fatty acid oxidation using palmitoyl carnitine as substrate - % of Control” value in series [2] (3 μM compound), in series [2] (30 μM compound) and in series [2] (100 μM compound) were 106%, 98% and 82%, respectively. Moreover, the “Liver S9 Parent Present relative to Ranolazine” value in series [3] amounted to 1.20.

With `COc1ccccc1OCC(O)CN1CCN(CC(=O)Nc2c(C)cccc2C)CC1(C)C` (stereo not shown) [Compound 18, N-(2,6-dimethylphenyl)-2-{4-[2-hydroxy-3-(2-methoxyphenoxy)propyl]-3,3-dimethylpiperazinyl}acetamide], the “Inhibition of mitochondrial fatty acid oxidation using palmitoyl CoA as substrate - % of Control” value in series [1] (100 μM compound) was determined as 80%. Further, the “Inhibition of mitochondrial fatty acid oxidation using palmitoyl carnitine as substrate - % of Control” value in series [2] (100 μM compound) is given as 17%.

`COc1ccccc1OCC(O)CN1C(C)CN(CC(=O)Nc2c(C)cccc2C)CC1C` (stereo not shown) [Compound 7, N-(2,6-dimethylphenyl)-2-{4-[2-hydroxy-3-(2-methoxy)propyl]-3,5-dimethylpiperazinyl}acetamide]: the entries for the “Inhibition of mitochondrial fatty acid oxidation using palmitoyl CoA as substrate - % of Control” value in series [1] (3 μM compound), in series [1] (30 μM compound) and in series [1] (100 μM compound) were 107%, 98% and 85%, respectively. In addition, the “Inhibition of mitochondrial fatty acid oxidation using palmitoyl carnitine as substrate - % of Control” value in series [2] (3 μM compound) was 109%; in series [2] (30 μM compound), 102%; in series [2] (100 μM compound) it was 95%.

`COc1ccccc1OCC(O)CN1CCN(CC(=O)Nc2c(C)cccc2C)C(=O)C1` (stereo not shown) [Compound 16, N-(2,6-dimethylphenyl)-2-{4-[2-hydroxy-3-(2-methoxyphenoxy)propyl]-2-oxopiperazinyl}acetamide]: the figures for the “Inhibition of mitochondrial fatty acid oxidation using palmitoyl CoA as substrate - % of Control” value in series [1] (30 μM compound) and in series [1] (100 μM compound) were 96% and 100%, respectively. In addition, the “Inhibition of mitochondrial fatty acid oxidation using palmitoyl carnitine as substrate - % of Control” value in series [2] (100 μM compound) is 64%. Also, in series [3], the “Liver S9 Parent Present relative to Ranolazine” value is 0.15.

For the molecule `Cc1cccc(C)c1NC(=O)CN1CCN(CC(O)CCOc2ccc(C(C)(C)C)cc2)CC1` (stereo not shown) [Compound 22], the “Inhibition of mitochondrial fatty acid oxidation using palmitoyl CoA as substrate - % of Control” value in series [1] (100 μM compound) was determined as 16%. Moreover, the “Inhibition of mitochondrial fatty acid oxidation using palmitoyl carnitine as substrate - % of Control” value in series [2] (100 μM compound) is recorded as 25%.

As to `COc1ccccc1OCC(O)CN1CCN(CC(=O)Nc2c(C)cccc2C)CC1` (racemic) [Ranolazine, (±)-N-(2,6-dimethylphenyl)-4-[2-hydroxy-3-(2-methoxyphenoxy)-propyl]-1-piperazineacetamide, reference compound], the “Inhibition of mitochondrial fatty acid oxidation using palmitoyl CoA as substrate - % of Control” value in series [1] (30 μM compound) is given as 90%; in series [1] (100 μM compound), 75%. Further, the entries for the “Inhibition of mitochondrial fatty acid oxidation using palmitoyl carnitine as substrate - % of Control” value in series [2] (30 μM compound) and in series [2] (100 μM compound) were 98% and 63%, respectively. In addition, the “Liver S9 Parent Present relative to Ranolazine” value in series [3] amounted to 1.0. Besides, the “percentage of parent drug remaining at the 30 minute time point” value in series [3] (average of five experiments) was 57%.

For the molecule `COc1ccccc1OCC(O)CN1CCN(CC(=O)Nc2c(C)cccc2C)C2CCCCC21` (stereo not shown) [Compound 17], the “Inhibition of mitochondrial fatty acid oxidation using palmitoyl CoA as substrate - % of Control” value in series [1] (3 μM compound) is reported as 100%; in series [1] (30 μM compound), 98%; in series [1] (100 μM compound), 89%. The entries for the “Inhibition of mitochondrial fatty acid oxidation using palmitoyl carnitine as substrate - % of Control” value in series [2] (3 μM compound), in series [2] (30 μM compound) and in series [2] (100 μM compound) were 103%, 88% and 80%, respectively. The “Liver S9 Parent Present relative to Ranolazine” value in series [3] was 0.45.
